# In patent US20020099070A1, “Dihydronaphthyridine potassium channel openers” (priority 2000, published 2002):
# Experiments:
# [1] = test system: primary cultured guinea-pig urinary bladder (GPB) cells; assay: Membrane hyperpolarization (MHP) assay, DiBAC(4)3 / FLIPR; assay type: cell-based; conditions: for Emax / Maximal Response (% P1075): maximal steady-state hyperpolarization, normalized to 10 μM P1075 = 100%; for Emax: read-out: Maximal Response (% P1075); for EC50: membrane hyperpolarization in GPB cells
# Description: Compounds were evaluated for potassium channel opening activity using primary cultured guinea-pig urinary bladder (GPB) cells.
# For the preparation of urinary bladder smooth muscle cells, urinary bladders were removed from male guinea-pigs (Hartley, Charles River, Wilmington, Mass.) weighing 300-400 g and placed in ice-cold Ca^2+-free Krebs solution (Composition, mM: KCl, 2.7; KH2PO4, 1.5; NaCl, 75; Na2HPO4, 9.6; Na2HPO4.7H2O, 8; MgSO4, 2; glucose, 5; HEPES, 10; pH 7.4). Cells were isolated by enzymatic dissociation as previously described with minor modifications in Klockner, U. and Isenberg, G., Pflugers Arch. 1985, 405, 329-339, hereby incorporated by reference. The bladder was cut into small sections and incubated in 5 mL of the Kreb's solution containing 1 mg/mL collagenase (Sigma, St. Louis, Mo.) and 0.2 mg/mL pronase (Calbiochem, La Jolla, Calif.) with continuous stirring in a cell incubator for 30 minutes. The mixture was then centrifuged at 1300×g for 5 minutes, and the pellet resuspended in Dulbecco's PBS (GIBCO, Gaithersburg, Md.) and recentrifuged to remove residual enzyme. The cell pellet was resuspended in 5 mL growth media (composition: Dulbecco's modified Eagle's medium supplemented with 10% fetal bovine serum, 100 units/mL penicillin, 100 units/mL streptomycin and […] amphotericin B) and further dissociated by pipetting the suspension through a flame-polished Pasteur pipette and passing it through a polypropylene mesh membrane (Spectrum, Houston, Tex.). The cell density was adjusted to 100,000 cells/mL by resuspension in growth media. Cells were plated in clear-bottomed black 96-well plates (Packard) for membrane potential studies at a density of 20,000 cells/well and maintained in a cell incubator with 90% air: 10% CO2 until confluent. Cells were confirmed to be of smooth muscle type by cytoskeletal staining using a monoclonal mouse anti human-α-smooth muscle actin (Biomeda, Foster City, Calif.).
# Functional activity at potassium channels was measured by evaluating changes in membrane potential using the bis-oxonol dye DiBAC(4)3 (Molecular Probes) in a 96-well cell-based kinetic assay system, Fluorescent Imaging Plate Reader (FLIPR) (K. S. Schroeder et al., J. Biomed. Screen., v. 1 pp. 75-81 (1996)), hereby incorporated by reference. DiBAC(4)3 is an anionic potentiometric probe which partitions between cells and extracellular solution in a membrane potential-dependent manner. With increasing membrane potential (for example, K^+ depolarization), the probe fuither partitions into the cell; this is measured as an increase in fluorescence due to dye interaction with intracellular lipids and proteins. Conversely, decreasing membrane potential (hyperpolarization by potassium channel openers) evokes a decrease in fluorescence.
# Confluent guinea-pig urinary bladder cells cultured in black clear-bottomed 96-well plates were rinsed twice with […] assay buffer (composition, mM: HEPES, 20; NaCl, 120; KCl, 2; CaCl2, 2; MgCl2, 1; glucose, 5; pH 7.4 at 25° C.) containing 5 μM DiBAC(4)3 and incubated with […] of the buffer in a cell incubator for 30 minutes at 37° C. to ensure dye distribution across the membrane. After recording the baseline fluorescence for 5 minutes, the reference or test compounds, prepared at 10 times the concentration in the assay buffer, were added directly to the wells. Changes in fluorescence were monitored for an additional 25 minutes. Hyperpolarization responses were corrected for any background noise and were normalized to the response observed with 10 μM of the reference compound P1075, N″-cyano-N-(tert-pentyl)-N′-(3-pyridinyl)guanidine, which was assigned as 100%. P1075 is a potent opener of smooth muscle KATP channels (Quast et al., Mol. Pharmacol., v. 43 pp. 474-481 (1993)) and was prepared using the procedures described in (Manley, J. Med. Chem. (1992) 35, 2327-2340), hereby incorporated by reference. […]
# [2] = test system: Landrace pig bladder strips; assay: Functional potassium channel opening activity in isolated bladder strips (field-stimulated twitch); conditions: for Index: ED50 for P1075 divided by ED50 for test agonist, averaged over tissues; for EC50: Sus scrofa, read-out: pD2 (converted); for EC50 / pD2: negative logarithm of ED50; for Efficacy (% P1075): maximal efficacy relative to P1075, field stimulation 0.05 Hz, 0.5 ms, 20 volts
# Description: Compounds were evaluated for functional potassium channel opening activity using tissue strips obtained from Landrace pig bladders.
# Landrace pig bladders were obtained from female Landrace pigs of 9-30 kg. Landrace pigs were euthanized with an intraperitoneal injection of pentobarbital solution, Somlethal® , J. A. Webster Inc., Sterling, Mass. The entire bladder was removed and immediately placed into Krebs Ringer bicarbonate solution (composition, mM: NaCl, 120; NaHCO3, 20; dextrose, 11; KCl, 4.7; CaCl2, 2.5; MgSO4, 1.5; KH2PO4, 1.2; K2EDTA, 0.01, equilibrated with 5% CO2/95% O2 pH 7.4 at 37° C.). Propranolol (0.004 mM) was included in all of the assays to block β-adrenoceptors. The trigonal and dome portions were discarded. Strips 3-5 millimeters (mm) wide and 20 mm long were prepared from the remaining tissue cut in a circular fashion. The mucosal layer was removed. One end was fixed to a stationary glass rod and the other to a Grass FT03 transducer at a basal preload of 1.0 g. Two parallel platinum electrodes were included in the stationary glass rod to provide field stimulation of 0.05 Hz, 0.5 milli-seconds at 20 volts. This low frequency stimulation produced a stable twitch response of 100-500 centigrams. Tissues were allowed to equilibrate for at least 60 minutes and primed with 80 mM KCl. A control concentration response curve (cumulative) was generated for each tissue using the potassium channel opener P1075 as the control agonist. […] After a 60 minute rinsing period, a concentration response curve (cumulative) was generated for the test agonist in the same fashion as that used for the control agonist P1075. The maximal efficacy of each compounds (expressed as % relative to P1075) is reported. The amount of agent necessary to cause 50% of the agent's maximal response (ED50) was calculated using “ALLFIT” (DeLean et al., Am. J. Physiol., 235, E97 (1980)), and agonist potencies were expressed as pD2 (the negative logarithm). Agonist potencies were also expressed as an index relative to P1075. The index was calculated by dividing the ED50 for P1075 by the ED50 for the test agonist in a give tissue. Each tissue was used for only one test agonist, and the indices obtained from each tissue were averaged to provide an average index of potency.
Compound,EC50 ([1]; Cavia porcellus) [nM],EC50 [2] [nM],EC50 [1] [nM],Emax ([1]; Cavia porcellus) [%],Index [2],Efficacy (% P1075) [2] [% P1075],pD2 [2],Maximal Response (% P1075) [1] [% P1075],"effect on stimulated twitch / contractions of the bladder ([2]; P1075: concentration range 10^−9 to 10^−5 M, cumulative)"
"CC1=C(C#N)C(c2ccc(F)c(Br)c2)C2=C(CCNC2=O)N1 (centres unmarked) [Example 2, 4-(3-bromo-4-fluorophenyl)-3-cyano-2-methyl-4,6,7,8-tetrahydro[1,6]naphthyridin-5(1H)-one]",100,692,,122,0.2653,60,,,
"CC1=C(C#N)C(c2ccc(F)c(Br)c2)c2c(cc[nH]c2=O)N1 (centres unmarked) [Example 5, 4-(3-bromo-4-fluorophenyl)-3-cyano-2-methyl-4,6-dihydro[1,6]naphthyridin-5(1H)-one]",,,17,114,1.2740,98,6.85,,
"CC1=C(C#N)C(c2ccc(F)c(Br)c2)c2c(ccn(C)c2=O)N1 (centres unmarked) [Example 7, 4-(3-bromo-4-fluorophenyl)-3-cyano-2,6-dimethyl-4,6-dihydro[1,6]naphthyridin-5(1H)-one]",,10.2,,,2.826,100,,,
"CC1=C(C#N)C(c2ccc(F)c(Br)c2)c2c(ccnc2Cl)N1 (centres unmarked) [Example 33, 4-(3-bromo-4-fluorophenyl)-5-chloro-3-cyano-2-methyl-1,4-dihydro[1,6]naphthyridine]",,,28,,0.0353,61,5.31,65,
"CC1=C(C#N)C(c2ccc(F)c(Br)c2)c2c(ccnc2Cl)N1 (centres unmarked) [Example 34, 4-(3-bromo-4-fluorophenyl)-5-chloro-3-cyano-2-methyl-1,4-dihydro[1,6]naphthyridine]",,,6,,0.2089,85,6.14,90,
"COc1nccc2c1C(c1ccc(F)c(Br)c1)C(C#N)=C(C)N2 (centres unmarked) [Example 38, 4-(3-bromo-4-fluorophenyl)-3-cyano-2-methyl-5-methoxy-1,4-dihydro[1,6]naphthyridine]",,1000,,,0.2488,78,,,
"CCC(C)(C)NC(=NC#N)Nc1cccnc1 [Example P1075, N″-cyano-N-(tert-pentyl)-N′-(3-pyridinyl)guanidine, reference compound]",,,,,,,,,completely eliminated the stimulated twitch

# Second part, led by results:
EC50 ([1]; Cavia porcellus) [nM],EC50 [2] [nM],EC50 [1] [nM],Compound,Emax ([1]; Cavia porcellus) [%],Index [2],Efficacy (% P1075) [2] [% P1075],pD2 [2],Maximal Response (% P1075) [1] [% P1075],"effect on stimulated twitch / contractions of the bladder ([2]; P1075: concentration range 10^−9 to 10^−5 M, cumulative)"
,,1500,"CC1=C(C#N)C(c2ccc(F)c(Br)c2)c2c(cc[nH]c2=O)N1 (centres unmarked) [Example 6, 4-(3-bromo-4-fluorophenyl)-3-cyano-2-methyl-4,6-dihydro[1,6]naphthyridin-5(1H)-one]",,0.0318,67,4.89,102,
,275,,"CC1=C(C#N)C(c2ccc(F)c(C(F)(F)F)c2)C2=C(CCOC2=O)N1 (centres unmarked) [Example 26, 4-[4-fluoro-3-(trifluoromethyl)phenyl]-3-cyano-2-methyl-1,4,7,8-tetrahydro-5H-pyrano[4,3-b]pyridin-5-one]",,0.6715,98,,,
,794,,"CC1=C(C#N)C(c2ccc(F)c(Br)c2)c2c(cc[nH]c2=S)N1 (centres unmarked) [Example 35, 4-(3-bromo-4-fluorophenyl)-3-cyano-2-methyl-4,6-dihydro[1,6]naphthyridine-5(1H)-thione]",,0.3068,77,,,
